Measured values from PubChem BioAssay AID179 (DTP/NCI, 2004).
pEC50, pIC50: −log10 of the molar value. Activity calls are given as the source filed them.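 Rule for the calls: active = compounds giving half or more protection of infected cells from virus-caused growth loss, again on retest; inactive = the rest.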

Test system: CEM cells HIV-1 protection, formazan growth assay
Assay: NCI AIDS Antiviral Assay
Conditions: for pIC50: measured here: growth of uninfected CEM cells
Outline: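 Five concentrations of each compound were applied to infected and uninfected human CEM cells. Protection from HIV-1 was judged from growth measured with a soluble formazan assay.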

Compound	pEC50	pIC50	outcome
CC1(O)N2CCCC1(c1ccccc1)CC2 (configuration not stated)	< 2.94	3.75	–
CC(=Nc1c2ccccc2nc2ccccc12)N(C)C	< 3.70	4.55	–
COC(=O)c1ccccc1C#CC#Cc1ccccc1C(=O)OC	< 3.70	4.62	–
Cc1ccccc1N=NC(C(=O)c1ccccc1)C(=O)c1ccccc1	< 4.68	4.83	–
O=C(c1ccccc1)c1ccc2c(c1)N=C(c1ccc(Cl)c(Cl)c1)CC(c1ccc3ccccc3c1)N2 (configuration not stated)	< 4.86	< 4.86	–
CCc1c2c(c(C)n1C)C(c1ccccc1)=NCC(=O)N2	< 3.33	3.53	–
CC1=C/C(=C(\c2ccc(N(C)C)cc2)c2ccc([N+](C)(C)C)cc2)C=CC1=[N+](C)C	–	–	inactive
Cn1c(=O)c2c(nc3n2CCC(=O)N3)n(C)c1=O	< 3.60	< 3.60	–
CC(C)c1ccc(/C(O)=C/C(=O)C(=O)/C=C(/O)c2ccc(C(C)C)cc2)cc1	–	–	inactive
CN(C)c1ccc(N=Nc2ccc3c(c2)C(=O)c2ccccc2C3=O)cc1	< 3.70	< 3.70	–
COC(=O)/C=C(C)/C=C\COC1CCCCO1 (configuration not stated)	< 3.70	< 3.70	–
N=C(N)N1CCNc2ccccc2C1	–	–	inactive
O=C(CCCn1ccnc1[N+](=O)[O-])NCCn1ccnc1[N+](=O)[O-]	< 3.70	< 3.70	–
COC(=O)C1(C2CCOC2=O)NCCc2c1[nH]c1ccccc21 (configuration not stated)	< 3.61	3.85	–
COC(=O)c1cc(-c2c[nH]cc2C(=O)OCc2ccccc2)cn1S(=O)(=O)c1ccc(C)cc1	< 3.70	4.75	–
C/C=C1\CN2CCC34c5ccccc5N(C)C35OCC4(C(=O)OC)C1CC25 (configuration not stated)	< 4.08	4.59	–
O=C(c1ccccc1)c1ccc(COc2ccc(C(c3c(O)c4ccccc4oc3=O)c3c(O)c4ccccc4oc3=O)cc2)cc1	< 3.70	4.45	–
COC(=O)C1=CCC(n2cc(C)c(=O)[nH]c2=O)CC1 (configuration not stated)	< 3.59	< 3.59	–
COc1cc(OC)c(/C=C\c2nccc3ccccc23)c(OC)c1	< 3.70	4.86	–
CN(C)c1ccc(/C=C2/Oc3ccc(Cl)cc3C2=O)cc1	< 5.32	< 5.32	–
COC(=O)c1cc(C(=CCCO)c2cc(Br)c(OC)c(C(=O)OC)c2)cc(Br)c1OC	< 3.70	4.90	–
COc1ccc(NC(=O)CC/C(CC(=O)c2ccco2)=N/NC(=O)C(N)=O)cc1	< 4.60	< 4.60	–

Compound	pEC50	pIC50	outcome
Cc1ccc(N=Nc2c(-c3ccccc3)nn(C(=O)CC(=O)Nc3ccc(Cl)cc3)c2-c2ccccc2)cc1	< 5.01	< 5.01	–
O=C1CC2(CCC(O)(c3ccc(Cl)cc3)C(C(=O)c3ccc(Cl)cc3)C2)C(=O)c2ccccc2N1 (configuration not stated)	< 3.70	4.17	–
O=C(O)C1C(C(=O)O)C2C3C4C1C1C2C3C41 (configuration not stated)	–	–	inactive
O=C(CSc1nc(-c2ccccc2)c(-c2ccccc2)[nH]1)N/N=C/c1ccc([N+](=O)[O-])cc1	< 4.66	5.00	–
CO/C(N)=C(\C#N)N=Cc1cccs1	< 3.70	3.93	–
CCCCCCCCCCCCCCCCc1c(C(=O)OC)[nH]c(=S)[nH]c1=O	< 5.45	< 5.45	–
COc1ccn(C)c(=O)c1C#N	< 2.82	< 2.82	–
CC(=O)OC1COC(Nc2nc(NCc3ccccc3)n(C)c(=O)c2N=O)C(OC(C)=O)C1OC(C)=O (configuration not stated)	< 3.70	< 3.70	–
COC1CC(n2ccc(=O)[nH]c2=O)OC1CO (configuration not stated)	< 3.70	< 3.70	–
CC1(C)C2CCC(N)(C2)C1O (configuration not stated)	< 3.70	< 3.70	–
CC12C3CC4C5CC(C(C53)[C@@H]1NCc1ccccc1)C42 (some centres not stated)	< 3.36	4.11	–
CC(SSC(C)N1C(=O)c2ccccc2C1=O)N1C(=O)c2ccccc2C1=O (configuration not stated)	< 4.00	< 4.00	–
CCCCCCCCCCCCCCCCNC(=O)/C(=C\c1ccccc1O)NC(=O)c1ccccc1	< 3.70	< 3.70	–
CCOc1ccccc1N=Nc1c(-c2ccccc2)nn(C(=O)CC(=O)Nc2cccc(C)c2)c1-c1ccccc1	< 4.60	< 4.60	–
C=C(CN(C)C)C(=O)c1ccccc1[N+](=O)[O-]	< 3.70	4.97	–
COC(=O)c1cc(C(=CCC[C@H]2CC[C@@]3(C)C(CCC4C3CC[C@@]3(C)C4CC[C@@H]3C(C)CCCC(C)C)C2)c2cc(Cl)c(O)c(C(=O)OC)c2)cc(Cl)c1O (some centres not stated)	< 3.70	< 3.70	–
COc1ccc(CC#C/C=C/C(=O)NCC(C)C)cc1	< 4.02	4.85	–
S=c1[nH]c(=S)c2[nH]cnc2[nH]1	< 3.70	4.07	–
O=C1CCC2(O)c3ccccc3C2Cc2ccccc21 (configuration not stated)	< 3.70	< 3.70	–
CN1C(=O)c2ccccc2Cc2c(NCc3ccccc3)ncnc21	< 4.05	4.72	–
CCOC(=O)c1ncn2c1[nH]c(=O)c1ccccc12	< 5.13	< 5.13	–
O=c1[nH]nc(Cc2ccc(Cl)cc2)n1O	< 3.70	< 3.70	–

Compound	pEC50	pIC50	outcome
CCOC1N(C2C=CC(CO)O2)C(=O)NC(=O)C1(C)Br (configuration not stated)	< 4.87	< 4.87	–
C=C(C)COC(=O)C1CC2OC2CC1C(=O)OCC(=C)C (configuration not stated)	< 3.70	3.78	–
Cc1ccc(C(=O)OC[C@H]2CC[C@@H](n3cc(N(C)C4CCCCC4)c(=O)[nH]c3=O)O2)cc1	< 3.70	4.27	–
CCCCNCc1cc(S(=O)(=O)N2CCCCC2)c2cccnc2c1O	< 4.32	5.05	–
COc1ccc(C2C(=O)C(Cl)N2Nc2nc(C)cc(=O)[nH]2)cc1OC (configuration not stated)	< 3.73	4.69	–
NCCCN(CCCN)CCN(CCN(CCCN)CCCN)CCN(CCCN)CCCN	< 3.70	4.24	–
S=c1c2cn[nH]c2nc2scc(-c3ccc(Cl)cc3)n12	< 3.70	4.88	–
Cc1nc2c(nc1C)C(=O)C(Cl)=C(N)C2=O	–	–	inactive
COc1ccc(CCN(C)CCC[C@](C#N)(c2ccc(OC)c(OC)c2)C(C)C)cc1OC	< 3.70	4.41	–
Cc1cccc(N=Nc2c(C)nn(C(=O)CC(=O)Nc3ccccc3)c2C)c1	< 3.70	< 3.70	–
CN(C)CCN1C(=O)c2ccccc2C1(O)c1ccc(Cl)cc1 (configuration not stated)	< 3.70	4.35	–
CCCC1(C)OC(=O)C(c2ccccc2)O1 (configuration not stated)	< 3.70	< 3.70	–
COC(=O)CP(=O)(OC)OCC(F)(F)F (configuration not stated)	< 3.00	3.08	–
CC(C)CCC[C@@H](C)[C@H]1CC[C@H]2[C@@H]3CC[C@H]4C[C@@H](CCC=C(c5cc(Cl)c(O)c(C(=O)O)c5)c5cc(Cl)c(O)c(C(=O)O)c5)CC[C@]4(C)[C@H]3CC[C@]12C	4.43	3.53	–
CC1CCCN1c1ccnc2cc(Cl)ccc12 (configuration not stated)	< 3.00	3.54	–
c1ccc2c(c1)SCCCSCCCS2	< 4.55	< 4.55	–
CCOC(=O)Nn1c(C)nnc1CC#N	< 3.70	< 3.70	–
CSc1n[nH]c(NC(=O)c2ccccc2Br)n1	< 3.24	3.37	–
CC(=O)OC1CCC2(C)C(CCC3C4CC=C(C(C)=O)C4(C)OC(=O)CC32)C1 (configuration not stated)	–	–	inactive
COc1cc(CC(=O)c2cc3c(cc2-c2ccccc2)OCO3)cc(OC)c1OC	< 4.05	4.62	–
